# Experimental data: ChEMBL document CHEMBL1134931, “Aminoalkoxybiphenylnitriles as histamine-3 receptor ligands” (Bioorg Med Chem Lett, 2002)
# Columns and labels:
# Histamine H3 receptor [1] = target: T1, Histamine H3 receptor (Homo sapiens, UniProt Q9Y5N1); experiment: Binding affinity at human cloned Histamine H3 receptor
# Histamine H1 receptor [2] = target: T2, Histamine H1 receptor (Homo sapiens, UniProt P35367); experiment: Binding affinity of human cortical histamine H1 receptor
# Histamine H3 receptor [3] = target: T3, Histamine H3 receptor (Rattus norvegicus, UniProt Q9QYN8); experiment: Binding affinity at rat cortical Histamine H3 receptor
# Histamine H2 receptor [4] = target: T4, Histamine H2 receptor (Homo sapiens, UniProt P25021); experiment: Binding affinity to the human cortical histamine H2 receptor
# Histamine H1 receptor [5] = target: T2, Histamine H1 receptor; experiment: Binding affinity at human cortical Histamine 1 receptor
# Histamine H2 receptor [6] = target: T4, Histamine H2 receptor; experiment: Binding affinity at human cortical Histamine 2 receptor
# Histamine H3 receptor [7] = target: T1, Histamine H3 receptor; experiment: Binding affinity at human cloned Histamine 3 receptor
# Histamine H3 receptor [8] = target: T3, Histamine H3 receptor; experiment: Binding affinity at rat cortical Histamine 3 receptor
# T2 sequence (P35367 whole entry): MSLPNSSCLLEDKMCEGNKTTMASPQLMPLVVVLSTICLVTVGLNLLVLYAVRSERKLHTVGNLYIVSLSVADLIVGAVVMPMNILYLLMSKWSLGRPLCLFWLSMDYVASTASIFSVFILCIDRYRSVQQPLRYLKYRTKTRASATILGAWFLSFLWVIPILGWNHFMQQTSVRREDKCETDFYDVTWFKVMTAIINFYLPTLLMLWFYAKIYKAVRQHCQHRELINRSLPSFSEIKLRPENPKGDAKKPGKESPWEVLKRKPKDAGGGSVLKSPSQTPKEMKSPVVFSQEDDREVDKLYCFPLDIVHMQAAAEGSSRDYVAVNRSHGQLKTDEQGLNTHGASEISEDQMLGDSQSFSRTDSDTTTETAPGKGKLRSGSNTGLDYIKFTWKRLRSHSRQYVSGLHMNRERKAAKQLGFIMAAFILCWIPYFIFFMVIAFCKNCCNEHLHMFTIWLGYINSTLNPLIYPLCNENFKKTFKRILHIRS
# T3 sequence (Q9QYN8 whole entry): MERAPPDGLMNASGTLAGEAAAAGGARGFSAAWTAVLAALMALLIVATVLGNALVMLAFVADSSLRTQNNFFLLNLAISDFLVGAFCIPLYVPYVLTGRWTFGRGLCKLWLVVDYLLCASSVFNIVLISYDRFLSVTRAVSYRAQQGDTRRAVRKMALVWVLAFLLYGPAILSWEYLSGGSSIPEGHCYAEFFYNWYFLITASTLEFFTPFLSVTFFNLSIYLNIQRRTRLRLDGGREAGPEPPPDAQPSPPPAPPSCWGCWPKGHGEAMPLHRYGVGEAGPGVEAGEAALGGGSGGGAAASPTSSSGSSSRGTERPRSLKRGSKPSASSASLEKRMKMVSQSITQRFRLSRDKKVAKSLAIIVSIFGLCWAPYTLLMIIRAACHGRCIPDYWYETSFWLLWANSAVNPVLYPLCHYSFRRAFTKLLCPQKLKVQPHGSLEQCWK
# T4 sequence (P25021 whole entry): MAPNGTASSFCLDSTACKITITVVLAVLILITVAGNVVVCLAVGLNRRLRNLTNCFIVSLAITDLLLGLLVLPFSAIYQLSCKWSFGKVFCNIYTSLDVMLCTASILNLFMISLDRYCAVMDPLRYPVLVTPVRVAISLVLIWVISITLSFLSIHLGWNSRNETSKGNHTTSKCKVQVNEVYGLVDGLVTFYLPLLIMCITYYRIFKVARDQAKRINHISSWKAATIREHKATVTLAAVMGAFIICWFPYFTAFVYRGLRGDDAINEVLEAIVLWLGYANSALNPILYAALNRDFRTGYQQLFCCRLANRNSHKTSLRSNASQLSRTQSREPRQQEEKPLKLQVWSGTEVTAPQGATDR
# T1 sequence (Q9Y5N1 whole entry): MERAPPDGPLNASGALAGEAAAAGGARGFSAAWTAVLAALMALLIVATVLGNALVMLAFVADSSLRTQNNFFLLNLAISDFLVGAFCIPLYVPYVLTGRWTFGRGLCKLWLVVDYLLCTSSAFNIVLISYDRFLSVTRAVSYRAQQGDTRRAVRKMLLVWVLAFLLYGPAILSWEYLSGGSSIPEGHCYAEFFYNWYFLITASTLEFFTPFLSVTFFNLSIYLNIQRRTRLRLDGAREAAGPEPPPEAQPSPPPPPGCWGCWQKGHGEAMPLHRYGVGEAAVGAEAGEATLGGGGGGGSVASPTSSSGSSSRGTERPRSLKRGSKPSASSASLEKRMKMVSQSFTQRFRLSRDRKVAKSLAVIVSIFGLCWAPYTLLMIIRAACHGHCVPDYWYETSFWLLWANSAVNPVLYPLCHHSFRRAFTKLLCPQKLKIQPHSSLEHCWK
Ki (Histamine H3 receptor [1]),Ki (Histamine H1 receptor [2]),Ki (Histamine H3 receptor [3]),Ki (Histamine H2 receptor [4]),Ki (Histamine H1 receptor [5]),Ki (Histamine H2 receptor [6]),Ki (Histamine H3 receptor [7]),Ki (Histamine H3 receptor [8]),SMILES
1000 nM,501 nM,56.2 nM,12900 nM,–,–,–,–,CCOC(=O)N1CCN(CCCOc2ccc(-c3cc[nH]c3)cc2)CC1
123 nM,575 nM,31.6 nM,10000 nM,–,–,–,–,N#Cc1ccc(-c2ccc(OCCCN3CCC(O)CC3)cc2)cc1
–,–,–,–,3550 nM,33900 nM,200 nM,129 nM,N#Cc1ccc(-c2ccc(OCCCN3CCC(N)CC3)cc2)cc1
7.08 nM,3470 nM,22.9 nM,18600 nM,–,–,–,–,CC1CCCCN1CCCOc1ccc(-c2ccc(C#N)cc2)cc1 (stereo not given)
–,–,–,–,4470 nM,17000 nM,8.32 nM,–,N#Cc1ccc(-c2ccc(OCCCN3CC[C@@H](O)C3)cc2)cc1
–,1480 nM,871 nM,69200 nM,–,–,–,–,CCOC(=O)N1CCN(CCCOc2ccc(-c3c[nH]cn3)cc2)CC1
–,–,–,–,13800 nM,7410 nM,6.17 nM,63.1 nM,N#Cc1ccc(-c2ccc(OCCCN3CC[C@@H](N)C3)cc2)cc1
–,–,–,–,380 nM,24000 nM,–,–,CCOC(=O)N1CCN(CCCOc2ccc(-c3cccc(C#N)c3)cc2)CC1
–,–,–,–,355 nM,5620 nM,–,191 nM,CCOC(=O)N1CCN(CCCOc2ccc(-c3ccc(Cl)cc3)cc2)CC1
–,355 nM,–,100000 nM,–,–,–,–,CCOC(=O)N1CCN(CCCOc2ccc(-c3ccc(OC)cc3)cc2)CC1
2.14 nM,3980 nM,16.2 nM,24000 nM,–,–,–,–,CC1CCCC(C)N1CCCOc1ccc(-c2ccc(C#N)cc2)cc1 (stereo not given)
–,759 nM,209 nM,97700 nM,–,–,–,–,CCOC(=O)N1CCN(CCCOc2ccc(-c3ccsc3)cc2)CC1
117 nM,8910 nM,589 nM,22900 nM,–,–,–,–,N#Cc1ccc(-c2ccc(OCCCN3CCNCC3)cc2)cc1
–,27.5 nM,102 nM,3980 nM,–,–,–,–,CCOC(=O)N1CCN(CCCOc2ccc(-c3ccc(C#N)cc3C)cc2)CC1
0.676 nM,562 nM,6.46 nM,9120 nM,–,–,–,–,C[C@@H]1CC[C@@H](C)N1CCCOc1ccc(-c2ccc(C#N)cc2)cc1
–,–,–,–,162 nM,7590 nM,–,617 nM,CCOC(=O)N1CCN(CCCOc2ccc(-c3ccccc3[N+](=O)[O-])cc2)CC1
8.32 nM,3890 nM,13.5 nM,7760 nM,–,–,–,–,N#Cc1ccc(-c2ccc(OCCCN3CCCNCC3)cc2)cc1

Ki (Histamine H3 receptor [1]),Ki (Histamine H1 receptor [2]),Ki (Histamine H3 receptor [3]),Ki (Histamine H2 receptor [4]),Ki (Histamine H1 receptor [5]),Ki (Histamine H2 receptor [6]),Ki (Histamine H3 receptor [7]),Ki (Histamine H3 receptor [8]),SMILES
36.3 nM,3240 nM,25.1 nM,38000 nM,–,–,–,–,N#Cc1ccc(-c2ccc(OCCCN3CCOCC3)cc2)cc1
8.51 nM,3720 nM,–,10000 nM,–,–,–,–,CN[C@@H]1CCN(CCCOc2ccc(-c3ccc(C#N)cc3)cc2)C1
30.2 nM,7760 nM,81.3 nM,12900 nM,–,–,–,–,N#Cc1ccc(-c2ccc(OCCCN3CCCC(O)C3)cc2)cc1 (stereo not given)
–,447 nM,229 nM,33100 nM,–,–,–,–,CCOC(=O)N1CCN(CCCOc2ccc(-c3cccs3)cc2)CC1
4.07 nM,3890 nM,15.5 nM,15100 nM,–,–,–,–,C[C@@]1(O)CCN(CCCOc2ccc(-c3ccc(C#N)cc3)cc2)C1
–,–,–,–,5010 nM,67600 nM,7.24 nM,41.7 nM,N#Cc1ccc(-c2ccc(OCCCN3CCCC3)cc2)cc1
–,182 nM,112 nM,1660 nM,–,–,–,–,CCOC(=O)N1CCN(CCCOc2ccc(-c3ccc(Br)cc3)cc2)CC1
–,–,–,–,81.3 nM,8320 nM,–,97.7 nM,CCOC(=O)N1CCN(CCCOc2ccc(-c3ccc([N+](=O)[O-])cc3)cc2)CC1
–,–,–,–,5620 nM,19100 nM,19.5 nM,126 nM,N#Cc1ccc(-c2ccc(OCCCN3CC[C@H](O)C3)cc2)cc1
2.75 nM,1910 nM,13.5 nM,10000 nM,–,–,–,–,CN(C)[C@@H]1CCN(CCCOc2ccc(-c3ccc(C#N)cc3)cc2)C1
1000 nM,158 nM,28.2 nM,28800 nM,–,–,–,–,CCOC(=O)N1CCN(CCCOc2ccc(-c3ccc(C#N)cc3)cc2)CC1
1.7 nM,275 nM,26.3 nM,11700 nM,–,–,–,–,CC1CCCN(CCCOc2ccc(-c3ccc(C#N)cc3)cc2)C1 (stereo not given)
13.8 nM,427 nM,9.77 nM,9120 nM,–,–,–,–,CC1CCN(CCCOc2ccc(-c3ccc(C#N)cc3)cc2)CC1
–,3720 nM,–,57500 nM,–,–,–,–,CCOC(=O)N1CCN(CCCOc2ccc(-c3ccncc3)cc2)CC1
15.1 nM,2880 nM,66.1 nM,12300 nM,–,–,–,–,N#Cc1ccc(-c2ccc(OCCCN3CC4CNCC4C3)cc2)cc1 (stereo not given)
–,437 nM,240 nM,3630 nM,–,–,–,–,CCOC(=O)N1CCN(CCCOc2ccc(-c3ccc(OC(F)(F)F)cc3)cc2)CC1
